Data taken from ChEMBL document CHEMBL1201862, “PubChem BioAssay data set” (2004).
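Following 48 hours of exposure in 96-well plates, responses at five concentrations were used to interpolate endpoints linearly. GI50 = concentration required for 50% inhibition of growth.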 Activity calls are given as the source filed them. Cut-off read from the data, not from the text of the source: active = GI50 up to about 1.1 µM and inactive = higher.

How the values were obtained:
Assay in all cases: DTP human tumour cell line panel, 48 h
[1] = system: UACC-257
[2] = system: MDA-N
[3] = system: HT-29
[4] = system: OVCAR-8
[5] = system: NCI/ADR-RES
[6] = system: SF-268
[7] = system: HL-60
[8] = system: NCI-H23
[9] = system: SK-OV-3
[10] = system: HOP-92
[11] = system: HOP-62
[12] = system: K562
[13] = system: OVCAR-4
[14] = system: SR
[15] = system: OVCAR-5
[16] = system: NCI-H522
[17] = system: UACC-62
[18] = system: A549
[19] = system: HCT-116
[20] = system: HCT-15
[21] = system: MDA-MB-231
[22] = system: SK-MEL-2
[23] = system: PC-3
[24] = system: RPMI-8226
[25] = system: CAKI-1
[26] = system: SW-620
[27] = system: T47D
[28] = system: LOX IMVI
[29] = system: Malme-3M
[30] = system: SK-MEL-28
[31] = system: DU-145
[32] = system: SNB-19
[33] = system: ACHN
[34] = system: SNB-75
[35] = system: KM12
[36] = system: U-251
[37] = system: A498
[38] = system: SF-539
[39] = system: MOLT-4
[40] = system: RXF 393
[41] = system: Hs-578T
[42] = system: 786-0
[43] = system: SF-295
[44] = system: UO-31
[45] = system: IGROV-1
[46] = system: SK-MEL-5
[47] = system: MCF7
[48] = system: HCC 2998
[49] = system: TK-10
[50] = system: MDA-MB-435
[51] = system: CCRF-CEM
[52] = system: SN12C
[53] = system: NCI-H226
[54] = system: M14
[55] = system: NCI-H460
[56] = system: EKVX
[57] = system: COLO 205
[58] = system: OVCAR-3
[59] = system: BT-549

SMILES: CC(=O)/C(=C/NC(=S)Nc1ccccc1)C(=O)Nc1ccccc1C
- GI50 [1]: > 100 µM (inactive)
- GI50 [2]: > 100 µM (inactive)
- GI50 [3]: 77.8 µM (inactive)
- GI50 [4]: > 100 µM (inactive)
- GI50 [5]: > 100 µM (inactive)
- GI50 [6]: 91 µM (inactive)
- GI50 [7]: 84.9 µM (inactive)
- GI50 [8]: > 100 µM (inactive)
- GI50 [9]: > 100 µM (inactive)
- GI50 [10]: 99.1 µM (inactive)
- GI50 [11]: > 100 µM (inactive)
- GI50 [12]: 96.2 µM (inactive)
- GI50 [13]: > 100 µM (inactive)
- GI50 [14]: > 100 µM (inactive)
- GI50 [15]: > 100 µM (inactive)
- GI50 [16]: > 100 µM (inactive)
- GI50 [17]: > 100 µM (inactive)
- GI50 [18]: > 100 µM (inactive)
- GI50 [19]: > 100 µM (inactive)
- GI50 [20]: > 100 µM
- GI50 [21]: 29.4 µM (inactive)
- GI50 [22]: > 100 µM (inactive)
- GI50 [23]: > 100 µM (inactive)
- GI50 [24]: > 100 µM (inactive)
- GI50 [25]: 40.9 µM (inactive)
- GI50 [26]: > 100 µM (inactive)
- GI50 [27]: 52.4 µM (inactive)
- GI50 [28]: > 100 µM (inactive)
- GI50 [29]: > 100 µM (inactive)
- GI50 [30]: > 100 µM (inactive)
- GI50 [31]: > 100 µM (inactive)
- GI50 [32]: > 100 µM (inactive)
- GI50 [33]: > 100 µM (inactive)
- GI50 [34]: 49.9 µM (inactive)
- GI50 [35]: > 100 µM (inactive)
- GI50 [36]: > 100 µM (inactive)
- GI50 [37]: > 100 µM (inactive)
- GI50 [38]: > 100 µM (inactive)
- GI50 [39]: > 100 µM (inactive)
- GI50 [40]: > 100 µM (inactive)
- GI50 [41]: > 100 µM (inactive)
- GI50 [42]: > 100 µM (inactive)
- GI50 [43]: > 100 µM (inactive)
- GI50 [44]: 41.8 µM (inactive)
- GI50 [45]: > 100 µM (inactive)
- GI50 [46]: 61.2 µM (inactive)
- GI50 [47]: > 100 µM (inactive)
- GI50 [48]: > 100 µM (inactive)
- GI50 [49]: > 100 µM (inactive)
- GI50 [50]: > 100 µM (inactive)
- GI50 [51]: > 100 µM (inactive)
- GI50 [52]: > 100 µM (inactive)
- GI50 [53]: > 100 µM (inactive)
- GI50 [54]: > 100 µM (inactive)
- GI50 [55]: > 100 µM (inactive)
- GI50 [56]: > 100 µM (inactive)
- GI50 [57]: > 100 µM (inactive)
- GI50 [58]: 61.1 µM (inactive)

SMILES: O=C(OC1C#CCSCC#C/C=C\1)c1cnc2ccccc2n1 (stereo not given)
- GI50 [1]: > 100 µM (inactive)
- GI50 [2]: > 100 µM (inactive)
- GI50 [3]: > 100 µM (inactive)
- GI50 [4]: 0.409 µM (active)
- GI50 [5]: 0.805 µM (active)
- GI50 [6]: > 100 µM (inactive)
- GI50 [59]: > 100 µM (inactive)
- GI50 [7]: 30.6 µM (inactive)
- GI50 [8]: > 100 µM (inactive)
- GI50 [9]: > 100 µM (inactive)
- GI50 [10]: > 100 µM (inactive)
- GI50 [11]: > 100 µM (inactive)
- GI50 [12]: 19.7 µM (inactive)
- GI50 [13]: > 100 µM (inactive)
- GI50 [14]: 12.2 µM (inactive)
- GI50 [15]: > 100 µM (inactive)
- GI50 [16]: > 100 µM (inactive)
- GI50 [17]: > 100 µM (inactive)
- GI50 [19]: > 100 µM (inactive)
- GI50 [20]: > 100 µM
- GI50 [21]: > 100 µM (inactive)
- GI50 [22]: > 100 µM (inactive)
- GI50 [23]: > 100 µM (inactive)
- GI50 [26]: > 100 µM (inactive)
- GI50 [28]: > 100 µM (inactive)
- GI50 [29]: > 100 µM (inactive)
- GI50 [30]: > 100 µM (inactive)
- GI50 [31]: > 100 µM (inactive)
- GI50 [32]: > 100 µM (inactive)
- GI50 [33]: > 100 µM (inactive)
- GI50 [34]: > 100 µM (inactive)
- GI50 [36]: > 100 µM (inactive)
- GI50 [37]: 40 µM (inactive)
- GI50 [38]: > 100 µM (inactive)
- GI50 [40]: 79.8 µM (inactive)
- GI50 [41]: 29.8 µM (inactive)
- GI50 [42]: 0.461 µM (active)
- GI50 [43]: > 100 µM (inactive)
- GI50 [44]: > 100 µM (inactive)
- GI50 [45]: > 100 µM (inactive)
- GI50 [47]: > 100 µM (inactive)
- GI50 [48]: > 100 µM (inactive)
- GI50 [49]: > 100 µM (inactive)
- GI50 [50]: > 100 µM (inactive)
- GI50 [51]: 53.6 µM (inactive)
- GI50 [52]: > 100 µM (inactive)
- GI50 [53]: 79.4 µM (inactive)
- GI50 [54]: > 100 µM (inactive)
- GI50 [55]: 14.1 µM (inactive)
- GI50 [56]: > 100 µM (inactive)
- GI50 [57]: 14.6 µM (inactive)
- GI50 [58]: > 100 µM (inactive)
